Measurements taken from US4673678A, “Water soluble derivatives of fredericamycin A” (The United States of America as represented by the …, priority 1986, dated 1987).
Where a name gives a salt, the structure may show the parent alone. Read-outs that look alike come from different tables or passages of the source.

Assays:
stability = assay type: physicochemical
solubility [1] = assay type: physicochemical; conditions: for solubility: water
Experimental: The potassium salt of fredericamycin A (NSC #601617) is soluble in water with hand shaking for 1 minute, followed by vortexing for 3 minutes. The solubility is about 1.0 mg/ml and gives a transparent blue solution, pH 8.65 with no residue upon membrane filtration (0.22μ, HA, Millipore Products).
Fredericamycin A (15 mg, 0.0278 mmols) is treated with NaOH solution, 1:3 mols (7.65 mls; 0.0109N, degased previously and cooled to 0° C.) in pyridine solution at 0° C. (2.5 ml, degased) under N2 atmosphere. Reaction is carried out by stirring magnetically for 60 minutes under N2 atmosphere. (40 minutes at 0° C. and 20 minutes at 15° C.). The progress of reaction is followed by TLC, HPLC (of hydrolysed product of the Rx mixture) and UV. The resultant blue-green clear reaction mixture is frozen (-70° C.) and lyophilized (48 hrs) until a solid is obtained. […] It is soluble in water (0.5 mg/ml) with hand shake and sonication (15 minutes). […] TLC and HPLC (after hydrolysis) show single spot and single peak respectively showing that the product is pure.
The first indication of the salt formation is observed by solubility studies in water.

hygroscopicity = assay type: physicochemical
pH of aqueous solution = assay type: physicochemical
C38 colon tumor = conditions: in vivo; cited from earlier work
P388 Lymph. Leukemia = assay: in vivo antitumor activity against P388 leukemia; design: species or system CD2F1 mice; conditions: for % T/C / % T/C: toxicity: i.p.
Experimental: The antitumor activity is determined by contracted accessary testing services according to the National Cancer Institute (NCI) guidelines for natural products (Geran et al. protocols for Screening Chemical Agents and Natural Products Against Animal Tumors and other Biological Systems. Cancer Chemother. Rep. part 3, 3:7-61, 1972; Schepartz: Antitumor Screening Procedures of the National Cancer Institute. Japan J. Antibiotics 30 (Supl): 35-40, 1977.)
Alkali metal salt of FMA is tested in vivo against P338 leukemia. The test is carried out using male CD2F1 mice (wt.=18 g±3 g) in one experiment and female mice (wt, 17 g±3.0 gm) in another experiment. […]
*T/C is the ratio expressed in percent of the median survival time of the
treated group divided by the median survival time of the control group.
NCI criteria of positive (moderate) activity in P388 Leukemia is indicate
by a T/C value of 120%. A T/C value of ≥ 175% is indicative of
**DMSO = Dimethylsulfoxide; i.p = intraperitoneal route of injection.
Potassium salt of fredericamycin A was dissolved in water only.

CD8F mouse mammary tumor = conditions: in vivo; cited from earlier work
Gram-negative bacteria = conditions: cited from earlier work
[2] = general; precluded further toxicological and pharmacological studies; cited from earlier work
P388 leukemic cells = conditions: in vivo; cited from earlier work
LX-1 lung xenograft = conditions: in vivo; cited from earlier work
B16 melanoma = conditions: in vivo; cited from earlier work
fungi = conditions: cited from earlier work
mouse leukemia L1210 = conditions: in vitro, compared with actinomycin D and adriamycin; cited from earlier work
MX-1 breast xenograft = conditions: in vivo; cited from earlier work
mouse leukemia P388 = conditions: cited from earlier work
L1210 leukemia = conditions: in vivo; cited from earlier work
Lewis lung carcinoma = conditions: in vivo; cited from earlier work
Gram-positive bacteria = conditions: cited from earlier work
[3] = system: fungi (Penicillium notatum); assay: antimicrobial activity, disc method, fungi; assay type: cell-based; conditions: concentration 0.025 to 5 μg/ml
Experimental: (§1) Protocol for determining antimicrobial activity against Bacillus subtilis and Penicillium notatum
(§2) These were performed by Disc method, using standard assay procedures and the respective microorganism in each case. 15 μl of each sample in DMSO-H H2 O (1:1) is pipetted on to separate 0.25" absorbent paper disc and the assay is performed following routine techniques well known in the art. Zone sizes are read after incubation overnight (Bacillus subtilis) and after 4 days of incubation (Penicillium notatum) at various concentrations.

[4] = system: gram positive bacteria (Bacillus subtilis); assay: antimicrobial activity, disc method, bacteria; assay type: cell-based; conditions: concentration 0.025 to 5 μg/ml
Experimental: as §1, §2

[5] = system: P388 ascites murine leukemia; assay: in vitro cytotoxicity, Microculture Tetrazolium Assay (MTA), P388; assay type: cell-based; conditions: P388, 5 days culture, FIG. 5
From the text: The assay used for determining in vitro cytotoxic activity of alkali metal salt of FMA is known as "Microculture Tetrazolium Assay" (MTA) developed by the in vitro Cancer Pharmacology R & D Laboratory at NCI-FCRF. The method utilized is a modification of Procedure by T. Mosmann et al., (J. Immunol. Meth. 65:55, 1983 and 70:257, 1984) described by M. C. Alley et al (Proc. AACR. 27:389, 1986). The testing of alkali metal salt of FMA is done using P388 acites murine leukemia as the test system at a inoculation density of about 1000 cells per well and culture duration of 5 days, with various concentration levels of alkali metal salt of FMA vs fredericamycin A. The concentration range could be from 0.1 μg to 10 μg per ml. The results are recorded as percent of control O.D. for each sample dilution.

solubility [6] = assay type: physicochemical

C/C=C/C=C/c1cc2cc3c(c(O)c2c(=O)[nH]1)C1(CC3)C(=O)c2c(O)c3c(c(O)c2C1=O)C(=O)C(OC)=CC3=O (stereo not drawn) [Na-FMA, sodium salt of fredericamycin A]
stability of aqueous solution on longer standing (stability; water, room temperature): hydrolyzing back to fredericamycin A | solubility (solubility [1]; hand shake and sonication (15 minutes)): 500 µg/mL | hygroscopicity (hygroscopicity): highly hygroscopic | pH (water) (pH of aqueous solution; 0.5 mg/ml in water): 9.2±0.5

C/C=C/C=C/c1cc2cc3c(c(O)c2c(=O)[nH]1)C1(CC3)C(=O)c2c(O)c3c(c(O)c2C1=O)C(=O)C(OC)=CC3=O (stereo not drawn) [fredericamycin A]
activity against C38 colon tumor (C38 colon tumor): ineffective | % T/C (P388 Lymph. Leukemia; 0.06 mg/kg, DMSO): 122% | % T/C (P388 Lymph. Leukemia; 0.12 mg/kg, DMSO): 146% | % T/C (P388 Lymph. Leukemia; 0.25 mg/kg, DMSO): 134% | % T/C (P388 Lymph. Leukemia; 0.50 mg/kg, DMSO): 200% | % T/C (P388 Lymph. Leukemia; 1.00 mg/kg, DMSO): 160% | % T/C: toxicity (P388 Lymph. Leukemia; >1.00 mg/kg, DMSO): Toxic | reducing the median tumor weight (CD8F mouse mammary tumor): effective | activity against Gram-negative bacteria (Gram-negative bacteria): no activity | solubility [2]: poor solubility | extending the life span of mice inoculated with P388 (P388 leukemic cells): effective | activity against LX-1 lung xenograft (LX-1 lung xenograft): ineffective | solubility in water, in words (solubility [1]): almost insoluble | solubility in water, in words (solubility [1]; listed as FMA): virtually insoluble | activity against B16 melanoma (B16 melanoma): marginal activity | activity against fungi (fungi): good activity | ED50 against L1210 (mouse leukemia L1210): compared closely to the reported values for actinomycin D and adriamycin | activity against MX-1 breast xenograft (MX-1 breast xenograft): ineffective | cytotoxicity (mouse leukemia P388; in general, cells not specified): very cytotoxic | ED50 against P388 (mouse leukemia P388; in vitro, compared with actinomycin D and adriamycin): compared closely to the reported values for actinomycin D and adriamycin | activity against L1210 leukemia (L1210 leukemia): ineffective | activity against Lewis lung carcinoma (Lewis lung carcinoma): ineffective | activity against Gram-positive bacteria (Gram-positive bacteria): good activity

C/C=C/C=C/c1cc2cc3c(c(O)c2c(=O)[nH]1)C1(CC3)C(=O)c2c(O)c3c(c(O)c2C1=O)C(=O)C(OC)=CC3=O (stereo not drawn) [KFMA, potassium salt of fredericamycin A]
zone size [3]: 9.5 mm | T/C value (P388 Lymph. Leukemia; 1 mg/kg level): 178% | % T/C (P388 Lymph. Leukemia; Expt #1, 0.125 mg/kg, water): 119% | % T/C (P388 Lymph. Leukemia; Expt #1, 0.25 mg/kg, water): 119% | % T/C (P388 Lymph. Leukemia; Expt #1, 0.50 mg/kg, water): 153% | % T/C (P388 Lymph. Leukemia; Expt #1, 1.00 mg/kg, water): 178% | % T/C: toxicity (P388 Lymph. Leukemia; Expt #1, 2.00 mg/kg, water): Toxic | % T/C (P388 Lymph. Leukemia; Expt #1, .063 mg/kg, water): 110% | % T/C (P388 Lymph. Leukemia; Expt #2, 0.125 mg/kg, water): 120% | % T/C (P388 Lymph. Leukemia; Expt #2, 0.25 mg/kg, water): 132% | % T/C (P388 Lymph. Leukemia; Expt #2, 0.50 mg/kg, water): 160% | % T/C (P388 Lymph. Leukemia; Expt #2, 1.00 mg/kg, water): 175% | % T/C (P388 Lymph. Leukemia; Expt #2, .063 mg/kg, water): 112% | activity against P388 leukemia, in words (P388 Lymph. Leukemia; all experiments performed): significant activity | differences between male and female mice (P388 Lymph. Leukemia; male vs female mice): no differences observed | zone size [4]: 9.5 mm | stability of DMSO solution (anhydrous) (stability; 0° C./dark): several days | stability of anhydrous salt (stability; anhydrous, room temp.): stable | stability of anhydrous salt, duration in words (stability; anhydrous, room temperature): stable for extended period of time | temperature safely heated to with no decomposition (stability; high vacuum, 4 hrs): up to 60 °C | hydrolysis to fredericamycin A (stability; in presence of moisture, acid): Easily hydrolysable | stability of DMSO solution (anhydrous) (stability; room temp, 4 hrs): fairly stable | storage stability (stability; sealed under nitrogen, anhydrous, amber container, 0° C. over silica gel): stable for several months | stability of aqueous solution (stability; water, about 1.0 mg/ml, room temperature): stable for almost an hour | in vitro cytotoxic activity as compared to that of FMA [5]: equal or better | solubility (solubility [1]; Table 1): 1000 µg/mL | solubility (solubility [1]; solubility studies in water): ~1000 µg/mL | solubility in chloroform-methanol-acetic acid (87:3:3) and methanol (solubility [6]): Soluble | solubility in dimethylacetamide, dimethylformamide, pyridine (solubility [6]): Readily Soluble | solubility in ethylacetate, acetonitrile and chloroform (solubility [6]): Sparingly soluble | solubility in hexanes, ether, acetone, benzene and carbon tetra chloride (solubility [6]): Insoluble | solubility in dimethyl sulfoxide (solubility [6]; Readily Soluble): 8 mg/1.5 ml | solubility (solubility [6]; dmso-saline 5:95, organic solvent or mixture, read-out: solubility in dimethylsulfoxide-saline (5:95)): 1000 µg/mL | solubility (solubility [6]; dmso-saline 10:90, organic solvent or mixture, solution is transparent blue, read-out: solubility in dimethylsulfoxide-saline (10:90)): 1000 µg/mL | solubility (solubility [6]; dmso-water 1:1, organic solvent or mixture, Readily Soluble, read-out: solubility in dimethylsulfoxide-water (1:1)): 3000 µg/mL | solubility (solubility [6]; dmso-water 5:95, organic solvent or mixture, read-out: solubility in dimethylsulfoxide-water (5:95)): 1500 µg/mL | solubility (solubility [6]; water, hand shaking 1 minute, vortexing 3 minutes, read-out: solubility in water): ~1000 µg/mL | pH (H2O) (pH of aqueous solution; Table 1): 8.9 ± 0.2 | pH of aqueous solution (pH of aqueous solution; about 1.0 mg/ml in water): 8.65
